Test results reported in ChEMBL document CHEMBL1145687, “Cochliobolic acid, a novel metabolite produced by Cochliobolus lunatus, inhibits binding of TGF-alpha to the EGF receptor in a SPA assay” (J Nat Prod, 1997).

Target: Epidermal growth factor receptor (Homo sapiens, UniProt P00533)
Assay: Displacement of [125I]-TGFalpha from human EGFR in human A431 cell membrane by SPA
Assay type: cell membranes, A-431

Chain of Epidermal growth factor receptor (P00533 whole entry): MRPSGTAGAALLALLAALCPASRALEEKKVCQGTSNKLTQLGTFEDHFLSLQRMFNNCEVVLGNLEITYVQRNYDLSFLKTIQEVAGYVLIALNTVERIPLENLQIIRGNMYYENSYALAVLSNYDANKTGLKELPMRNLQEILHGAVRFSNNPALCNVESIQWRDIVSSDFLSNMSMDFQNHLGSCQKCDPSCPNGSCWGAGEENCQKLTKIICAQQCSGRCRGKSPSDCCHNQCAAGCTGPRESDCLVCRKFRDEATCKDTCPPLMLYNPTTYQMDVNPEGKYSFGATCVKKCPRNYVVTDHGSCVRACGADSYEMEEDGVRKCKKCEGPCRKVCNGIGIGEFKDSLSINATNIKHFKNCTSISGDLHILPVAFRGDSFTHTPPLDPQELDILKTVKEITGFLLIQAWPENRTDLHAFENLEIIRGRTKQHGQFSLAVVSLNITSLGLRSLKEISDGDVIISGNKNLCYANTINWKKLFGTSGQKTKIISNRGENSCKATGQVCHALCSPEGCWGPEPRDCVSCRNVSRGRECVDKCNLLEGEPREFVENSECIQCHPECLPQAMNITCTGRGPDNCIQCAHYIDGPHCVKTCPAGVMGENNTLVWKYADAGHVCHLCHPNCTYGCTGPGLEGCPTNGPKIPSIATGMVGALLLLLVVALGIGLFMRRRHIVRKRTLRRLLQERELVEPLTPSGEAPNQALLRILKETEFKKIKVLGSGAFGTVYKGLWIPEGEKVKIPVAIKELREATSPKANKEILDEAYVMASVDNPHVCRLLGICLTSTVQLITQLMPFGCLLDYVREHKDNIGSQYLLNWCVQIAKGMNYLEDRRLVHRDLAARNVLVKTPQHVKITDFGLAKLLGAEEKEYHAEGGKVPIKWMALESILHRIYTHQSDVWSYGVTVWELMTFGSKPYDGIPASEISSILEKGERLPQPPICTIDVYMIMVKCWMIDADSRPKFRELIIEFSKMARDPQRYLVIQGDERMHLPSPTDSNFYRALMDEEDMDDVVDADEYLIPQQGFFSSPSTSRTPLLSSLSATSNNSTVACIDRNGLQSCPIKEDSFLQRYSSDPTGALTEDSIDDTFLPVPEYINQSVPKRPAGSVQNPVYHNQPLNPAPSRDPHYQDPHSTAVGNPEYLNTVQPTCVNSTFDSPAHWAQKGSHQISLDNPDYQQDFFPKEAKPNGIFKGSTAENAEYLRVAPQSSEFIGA

IC50: 1600 nM
Structure (SMILES): CCC(C)/C=C/C(=O)C(=O)/C=C/C=C/C=C/C=C/C=C/C=C/[C@@H]1C[C@@H](O)[C@H](C(=O)O)O1 (stereo partly specified) [COCHLIOBOLIC ACID]
